Results taken from patent US7572818B2, “2-pyridylethylbenzamide derivative” (Bayer Cropscience S.A., priority 2002, dated 2009).

How the values were obtained:
Conditions in all cases: preventive spray 24 h before inoculation
Pyrenophora teres = assay: In vivo test of activity on Pyrenophora teres (barley net blotch)
Procedure: In Vivo Test of Activity on Pyrenophora teres (Barley Net Blotch)
(§1) An aqueous solution of the active material to be tested is prepared at a concentration of 2 g/l by grinding in solution 1 or solution 2:
(§2) • Water • Tween 80 diluted to 10% in water: 5 μl/mg of active material • Clay in a sufficient amount for active material+clay to equal 100 mg; Solution 2
(§3) Concentrated solution containing surfactants and adjuvants conventionally used: 200 μl/mg of active material.
(§4) The aqueous solution is diluted with water so as to obtain the desired concentration.
Barley plants of the Express variety are sown in a 50/50 pozzolan/peat substrate and maintained at 12° C. The treatment is carried out at the 1-leaf stage (10 cm) by spraying the aqueous suspension. The untreated control plants are sprayed with water.
24 hours after treatment, the plants are inoculated by spraying a solution of Pyrenophora teres spores (10 000 spores/ml) originating from a 10-day culture.
The barley plants are then maintained at 18° C. in a humid atmosphere. The effectiveness of the products is evaluated relative to the control plants after eight to fifteen days of incubation.
(§5) The effectiveness of the molecules is estimated, at 500 g/ha, 250 g/ha or 330 ppm, by the percentage of control relative to untreated plants. Under these conditions, good effectiveness is defined as more than 80% effectiveness. Average effectiveness is defined as an effectiveness between 50 and 80%. Poor effectiveness is defined as an effectiveness between 10 and 50% and zero effectiveness is defined as less than 10% effectiveness.

Alternaria brassicae = assay: In vivo test of activity on Alternaria brassicae (crucifer black spot) on radish
Procedure: In Vivo Test of Activity on Alternaria brassicae (Crucifer Black Spot)
as §1, §2, §3, §4
Radishes of the Pernot variety are sown in a 50/50 pozzolan/peat substrate and maintained at 18-22° C. The treatment is carried out by spraying the aqueous suspension. The untreated control plants are sprayed with water. 24 hours after treatment, the plants are inoculated by spraying a solution of Alternaria brassicae spores (40 000 spores/ml) originating from a 12-day culture.
The radish plants are then maintained at 18-20° C. in a humid atmosphere. The effectiveness of the products is evaluated relative to the control plants after seven to eight days of incubation.
as §5

Botrytis cinerea = assay: In vivo test of activity on Botrytis cinerea on cucumber
Procedure: In Vivo Test of Activity on Botrytis cinerea on Cucumber
as §1, §2, §3, §4
Cucumbers of the Marketer variety are sown in a 50/50 pozzolan/peat substrate and maintained at 18-22° C. The treatment is carried out by spraying the aqueous suspension. The untreated control plants are sprayed with water.
24 hours after treatment, the plants are inoculated by spraying a solution of Botrytis cinerea spores (150 000 spores/ml) originating from a 15-day culture.
The cucumber plants are then maintained at 11-15° C. in a humid atmosphere. The effectiveness of the products is evaluated relative to the control plants after seven to eight days of incubation.
as §5

[1] = Botrytis cinerea, topical, 250 g/ha, read-out: effectiveness (percentage of control relative to untreated plants)

SMILES | effectiveness (percentage of control relative to untreated plants) (Pyrenophora teres; 330 ppm) | effectiveness (percentage of control relative to untreated plants) (Alternaria brassicae; 330 ppm) | further results
Cc1ccccc1C(=O)NCCc1ncc(C(F)(F)F)cc1Cl [Compound A-9] |  |  | effectiveness (percentage of control relative to untreated plants) (Pyrenophora teres; 500 g/ha): good to average; effectiveness (percentage of control relative to untreated plants) (Alternaria brassicae; 500 g/ha): good to average; effectiveness (percentage of control relative to untreated plants) (Botrytis cinerea; 500 g/ha): good to average
O=C(NCCc1ncc(C(F)(F)F)cc1Cl)c1ccccc1I [Compound A-45] | good to average | good to average | effectiveness (percentage of control relative to untreated plants) (Pyrenophora teres; 250 g/ha): good to average; effectiveness (percentage of control relative to untreated plants) (Alternaria brassicae; 250 g/ha): good to average; effectiveness (percentage of control relative to untreated plants) (Botrytis cinerea; 250 g/ha): good to average; effectiveness (percentage of control relative to untreated plants) (Botrytis cinerea; 330 ppm): good to average
Cc1ccc(C(=O)NCCc2ncc(C(F)(F)F)cc2Cl)c(C)c1 [Compound A-61] | good to average | good to average | 
COc1ccc(C(=O)NCCc2ncc(C(F)(F)F)cc2Cl)c(OC)c1 [Compound A-83] | good to average | good to average | 
COc1cc(Cl)ccc1C(=O)NCCc1ncc(C(F)(F)F)cc1Cl [Compound A-87] | good to average | good to average | 
O=C(NCCc1ncc(C(F)(F)F)cc1Cl)c1ccccc1OC(F)(F)F [Compound A-89] | good to average | good to average | 
O=C(NCCc1ncc(C(F)(F)F)cc1Cl)c1ccc([N+](=O)[O-])cc1Cl [Compound A-96] | good to average | good to average | 
Cc1cc(F)ccc1C(=O)NCCc1ncc(C(F)(F)F)cc1Cl [Compound A-117] | good to average | good to average | 
O=C(NCCc1ncc(C(F)(F)F)cc1Cl)c1ccc(Cl)c(F)c1Cl [Compound A-125] | good to average | good to average | 
CS(=O)(=O)c1cc(Br)ccc1C(=O)NCCc1ncc(C(F)(F)F)cc1Cl [Compound A-133] | good to average | good to average | 
Cc1ccc(Br)c(C(=O)NCCc2ncc(C(F)(F)F)cc2Cl)c1 [Compound A-134] | good to average | good to average | 
CSc1cc(F)ccc1C(=O)NCCc1ncc(C(F)(F)F)cc1Cl [Compound A-140] | good to average | good to average | 
CSc1ccccc1C(=O)NCCc1ncc(C(F)(F)F)cc1Cl [Compound A-167] | good to average | good to average | 
N#Cc1ccccc1C(=O)NCCc1ncc(C(F)(F)F)cc1Cl [Compound A-170] |  | good to average | effectiveness (percentage of control relative to untreated plants) (Botrytis cinerea; 330 ppm): good to average
O=C(NCCc1ncc(C(F)(F)F)cc1Cl)c1cc(F)ccc1C(F)(F)F [Compound A-172] |  |  | effectiveness (percentage of control relative to untreated plants) (Botrytis cinerea; 330 ppm): good to average
O=C(NCCc1ncc(C(F)(F)F)cc1Cl)c1cc(F)ccc1Br [Compound A-175] |  | good to average | effectiveness (percentage of control relative to untreated plants) (Botrytis cinerea; 330 ppm): good to average
Cc1ccc(Cl)c(C(=O)NCCc2ncc(C(F)(F)F)cc2Cl)c1F [Compound A-182] |  | good to average | 

SMILES | effectiveness (percentage of control relative to untreated plants) (Pyrenophora teres; 330 ppm) | effectiveness (percentage of control relative to untreated plants) (Alternaria brassicae; 330 ppm) | further results
O=C(NCCc1ncc(C(F)(F)F)cc1Cl)c1cc(Br)ccc1I [Compound A-183] |  | good to average | 
Cc1ccc(Cl)c(C(=O)NCCc2ncc(C(F)(F)F)cc2Cl)c1 [Compound A-184] |  | good to average | 
O=C(NCCc1ncc(C(F)(F)F)cc1Cl)c1cc(I)ccc1Cl [Compound A-185] |  | good to average | 
Cc1ccc(F)cc1C(=O)NCCc1ncc(C(F)(F)F)cc1Cl [Compound A-186] |  | good to average | 
O=C(NCCc1ncc(C(F)(F)F)cc1Cl)c1cc(Cl)ccc1I [Compound A-188] |  | good to average | 
COc1cc(I)c(C(=O)NCCc2ncc(C(F)(F)F)cc2Cl)cc1OC [Compound A-189] |  | good to average | 
Cc1cccc(C(=O)NCCc2ncc(C(F)(F)F)cc2Cl)c1N [Compound A-194] |  | good to average | 
O=C(NCCc1c(Cl)cc(C(F)(F)F)c[n+]1[O-])c1ccccc1C(F)(F)F [Compound B-1] | good to average | good to average | 
O=C(NCCc1ncc(C(F)(F)F)cc1Cl)c1c(Cl)cccc1Cl [N-{2-[3-chloro-5-(trifluoromethyl)-2-pyridinyl]-ethyl}-2,6-dichlorobenzamide, reference compound] |  | poor (Poor effectiveness is defined as an effectiveness between 10 and 50%) | effectiveness (percentage of control relative to untreated plants) (Alternaria brassicae; 250 g/ha): zero (zero effectiveness is defined as less than 10% effectiveness); pest or weed control at 250 g/ha (Botrytis cinerea; [1]): < 10%; pest or weed control at 330 ppm (Botrytis cinerea; Botrytis cinerea, topical, 330 ppm, read-out: effectiveness (percentage of control relative to untreated plants)): < 10%
CCNC(=O)C(Cc1ncc(C(F)(F)F)cc1Cl)NC(=O)c1ccccc1 (centres unmarked) [compound 304, N-{1-ethylcarbamoyl-2-[3-chloro-5-(trifluoromethyl)-2-pyridinyl]ethyl}-benzamide, reference compound] |  |  | pest or weed control at 250 g/ha (Botrytis cinerea; [1]): < 10%
CCNC(=O)C(Cc1ncc(C(F)(F)F)cc1Cl)NC(=O)c1ccc(Cl)cc1 (centres unmarked) [compound 306, N-{1-ethylcarbamoyl-2-[3-chloro-5-(trifluoromethyl)-2-pyridinyl]ethyl}-4-chlorobenzamide, reference compound] |  |  | pest or weed control at 250 g/ha (Botrytis cinerea; [1]): < 10%
CCNC(=O)C(Cc1ncc(C(F)(F)F)cc1Cl)NC(=O)c1cccc([N+](=O)[O-])c1 (centres unmarked) [compound 307, N-{1-ethylcarbamoyl-2-[3-chloro-5-(trifluoromethyl)-2-pyridinyl]ethyl}-3-nitrobenzamide, reference compound] |  |  | effectiveness (percentage of control relative to untreated plants) (Alternaria brassicae; 250 g/ha): zero (zero effectiveness is defined as less than 10% effectiveness); pest or weed control at 250 g/ha (Botrytis cinerea; [1]): < 10%
CCNC(=O)C(Cc1ncc(C(F)(F)F)cc1Cl)NC(=O)c1ccccc1Br (centres unmarked) [compound 310, N-{1-ethylcarbamoyl-2-[3-chloro-5-(trifluoromethyl)-2-pyridinyl]ethyl}-2-bromobenzamide, reference compound] |  |  | pest or weed control at 250 g/ha (Botrytis cinerea; [1]): < 10%
CNC(=O)C(Cc1ncc(C(F)(F)F)cc1Cl)NC(=O)c1ccccc1 (centres unmarked) [compound 314, N-{1-methylcarbamoyl-2-[3-chloro-5-(trifluoromethyl)2-pyridinyl]ethyl}-benzamide, reference compound] |  |  | pest or weed control at 250 g/ha (Botrytis cinerea; [1]): < 10%
CNC(=O)C(Cc1ncc(C(F)(F)F)cc1Cl)NC(=O)c1ccc(OC)cc1 (centres unmarked) [compound 315, N-{1-methylcarbamoyl-2-[3-chloro-5-(trifluoromethyl)-2-pyridinyl]ethyl}-4-methoxybenzamide, reference compound] |  |  | pest or weed control at 250 g/ha (Botrytis cinerea; [1]): < 10%
CNC(=O)C(Cc1ncc(C(F)(F)F)cc1Cl)NC(=O)c1ccc(-c2ccccc2)cc1 (centres unmarked) [compound 316, N-{1-methylcarbamoyl-2-[3-chloro-5-(trifluoromethyl)-2-pyridinyl]ethyl}-4-phenylbenzamide, reference compound] |  |  | effectiveness (percentage of control relative to untreated plants) (Alternaria brassicae; 250 g/ha): poor (Poor effectiveness is defined as an effectiveness between 10 and 50%); pest or weed control at 250 g/ha (Botrytis cinerea; [1]): < 10%
